Measurements taken from patent US20240226175A1, “THERAPEUTIC AGENT USING GENOME-EDITED PLURIPOTENT STEM CELL” (KEIO UNIVERSITY, priority 2020, published 2024).

Legend:
Type in all cases: cell-based, human
glioma cell line U87 = assay: Antitumor effect in co-culture with 5-FC (CCK-8), U87; details: without TSC1/TSC2
Description: (§1) Glioma cell line U87 (1×10^4 cells) or glioma stem cell line hG008 (1×10^4 cells) and TSC1 or TSC2 (5×10^3 cells) were co-cultured for 1 day using a low adhesive 96-well culture plate (Prime Surface 96V, manufactured by Sumitomo Bakelite Co., Ltd.), then 5-FC (2 μg/ml) was added, and cell deaths were assessed using a cell proliferation/cytotoxicity assay kit Cell Counting Kit-8 (CCK-8) 5 days later.

[1] = test system: glioma stem cell line hG008; assay: Antitumor effect in co-culture with 5-FC (CCK-8), hG008; details: without TSC1/TSC2
Description: as §1

(yCD-NSCs) = assay: Response of yCD-NSCs to 5-FU; details: ACTB (yCD-NSCs)

Row | Compound | tumor cell death with 5-FC alone (glioma cell line U87) | tumor cell death with 5-FC alone [1] | response to 5-FU ((yCD-NSCs))
1 | Nc1nc(=O)[nH]cc1F [5-FC, 5-fluorocytosine] | no particular tumor cell death was observed | no particular tumor cell death was observed | –
2 | O=c1[nH]cc(F)c(=O)[nH]1 [5-FU, 5-fluorouracil] | – | – | not favorable
